Test results from patent publication US9060949B2, “Menthyl carbamate compounds as skin and/or hair lightening actives” (SYMRISE AG, priority 2010, dated 2015).
pIC50: −log10 of the molar value.

Tested on: B16V mouse melanoma cells
Assay: Depigmenting effect on melanoma cell cultures (inhibition of pigmentation)
Format: cell-based
Conditions: 96 h, read-out: IC 50 (concentration at which pigmentation is inhibited by 50%)
Procedure: B16V mouse melanoma cells are disseminated in a 96-well microtitre plate in a concentration of 5×10^3 cells/well. After cultivation for 24 h at 37° C. and 5% CO2 in RPMI medium, enriched with 10% foetal calf serum, various concentrations of the test substances and 0.3 mM tyrosine and 10 nM α-MSH (α-melanocyte stimulating hormone) are added and incubated for a further 96 h. The maximum concentration of the test substances used corresponds to 0.1 times the value of the IC20 value of the cytotoxicity assay. Standards are incubated with kojic acid in concentrations of 0.01 mM, 0.1 mM and 1 mM in addition to tyrosine and α-MSH. Only tyrosine and α-MSH are added to the controls. After incubation, sodium lauryl sulfate and sodium hydroxide solution (final concentrations: 1 mM and 1 M respectively) are added to the culture medium and the absorption (A) is measured after 3 h at 400 nm.
The inhibition of pigmentation in the presence of the test compounds or kojic acid was calculated using the following equation: Inhibition of pigmentation(%)=100−[(Atest compound/Acontrol)×100] wherein Atest compound=absorption of the wells with test substance and with cells Acontrol=absorption of the wells without test substance, but with cells
From the inhibition of pigmentation (%) in a series of dilutions of test compounds, the IC50 for each test compound is calculated. This is the concentration of a test compound at which pigmentation is inhibited by 50%.

Structure (SMILES)	pIC50
CC(C)[C@@H]1CC[C@@H](C)C[C@H]1OC(=O)NCc1ccc2c(c1)OCO2 [BIO1571, Benzo[1,3]dioxol-5-ylmethyl-carbamic acid (1R,2S,5R)-2-isopropyl-5-methyl-cyclohexyl ester]	5.26

Same assay, conditions: B16V cells, 0.3 mM tyrosine and 10 nM α-MSH, 96 h incubation, absorption at 400 nm, read-out: IC 50 (concentration at which pigmentation is inhibited by 50%)

pIC50	Structure (SMILES)
4.39	CCNC(=O)O[C@@H]1C[C@H](C)CC[C@H]1C(C)C [BIO1151, Ethyl-carbamic acid (1R,2S,5R)-2-isopropyl-5-methyl-cyclohexyl ester]
4.66	COCCCNC(=O)O[C@@H]1C[C@H](C)CC[C@H]1C(C)C [BIO1155, (3-Methoxy-propyl)-carbamic acid (1R,2S,5R)-2-isopropyl-5-methyl-cyclohexyl ester]
4.00	CC(C)CNC(=O)O[C@@H]1C[C@H](C)CC[C@H]1C(C)C [BIO1159, Isobutyl-carbamic acid (1R,2S,5R)-2-isopropyl-5-methyl-cyclohexyl ester]
3.96	CNC(=O)O[C@@H]1C[C@H](C)CC[C@H]1C(C)C [BIO1185, Methyl-carbamic acid (1R,2S,5R)-2-isopropyl-5-methyl-cyclohexyl ester]
4.73	CC(C)[C@@H]1CC[C@@H](C)C[C@H]1OC(=O)NC1CCCCC1 [BIO1266, Cyclohexyl-carbamic acid (1R,2S,5R)-2-isopropyl-5-methyl-cyclohexyl ester]
3.30	CCCCNC(=O)O[C@@H]1C[C@H](C)CC[C@H]1C(C)C [BIO1267, Butyl-carbamic acid (1R,2S,5R)-2-isopropyl-5-methyl-cyclohexyl ester]
4.71	CC(C)OCCCNC(=O)O[C@@H]1C[C@H](C)CC[C@H]1C(C)C [BIO1268, (3-Isopropoxy-propyl)-carbamic acid (1R,2S,5R)-2-isopropyl-5-methyl-cyclohexyl ester]
4.72	CCCCCCNC(=O)O[C@@H]1C[C@H](C)CC[C@H]1C(C)C [BIO1271, Hexyl-carbamic acid (1R,2S,5R)-2-isopropyl-5-methyl-cyclohexyl ester]
4.19	CNC(=O)O[C@H]1C[C@@H](C)CC[C@@H]1C(C)C [BIO1301, Methyl-carbamic acid (1S,2R,5S)-2-isopropyl-5-methyl-cyclohexyl ester]
4.45	COCCNC(=O)O[C@@H]1C[C@H](C)CC[C@H]1C(C)C [BIO1336, (2-Methoxy-ethyl)-carbamic acid (1R,2S,5R)-2-isopropyl-5-methyl-cyclohexyl ester]
4.27	COCCCNC(=O)O[C@H]1C[C@@H](C)CC[C@@H]1C(C)C [BIO1339, (3-Methoxy-propyl)-carbamic acid (1S,2R,5S)-2-isopropyl-5-methyl-cyclohexyl ester]
4.53	CCNC(=O)O[C@H]1C[C@@H](C)CC[C@@H]1C(C)C [BIO1378, Ethyl-carbamic acid (1S,2R,5S)-2-isopropyl-5-methyl-cyclohexyl ester]
5.14	COCCCNC(=O)O[C@H]1C[C@H](C)CC[C@H]1C(C)C [BIO1460, (3-Methoxy-propyl)-carbamic acid (1S,2S,5R)-2-isopropyl-5-methyl-cyclohexyl ester]
4.54	CCNC(=O)O[C@H]1C[C@H](C)CC[C@H]1C(C)C [BIO1461, Ethyl-carbamic acid (1S,2S,5R)-2-isopropyl-5-methyl-cyclohexyl ester]
4.97	CCN(CC)C(=O)O[C@@H]1C[C@H](C)CC[C@H]1C(C)C [BIO1553, Diethyl-carbamic acid (1R,2S,5R)-2-isopropyl-5-methyl-cyclohexyl ester]
5.16	CC(C)[C@@H]1CC[C@@H](C)C[C@H]1OC(=O)Nc1ccccc1 [BIO1580, Phenyl-carbamic acid (1R,2S,5R)-2-isopropyl-5-methyl-cyclohexyl ester]
5.49	CCOc1ccccc1NC(=O)O[C@@H]1C[C@H](C)CC[C@H]1C(C)C [BIO1632, (2-Ethoxy-phenyl)-carbamic acid (1R,2S,5R)-2-isopropyl-5-methyl-cyclohexyl ester]
4.60	CC(=O)c1ccccc1NC(=O)O[C@@H]1C[C@H](C)CC[C@H]1C(C)C [BIO1633, (2-Acetyl-phenyl)-carbamic acid (1R,2S,5R)-2-isopropyl-5-methyl-cyclohexyl ester]
4.29	CC(C)[C@@H]1CC[C@@H](C)C[C@H]1OC(=O)NCCCCCCO [BIO1662, (6-Hydroxy-hexyl)-carbamic acid (1R,2S,5R)-2-isopropyl-5-methyl-cyclohexyl ester]
5.11	CC(C)[C@@H]1CC[C@@H](C)C[C@H]1OC(=O)NCc1ccccc1 [BIO1695, Benzyl-carbamic acid (1R,2S,5R)-2-isopropyl-5-methyl-cyclohexyl ester]
5.85	CC(C)[C@@H]1CC[C@@H](C)C[C@H]1OC(=O)NCC1CCCCC1 [BIO1699, Cyclohexylmethyl-carbamic acid (1R,2S,5R)-2-isopropyl-5-methyl-cyclohexyl ester]
4.83	CC(C)[C@@H]1CC[C@@H](C)C[C@H]1OC(=O)NCC1CCCO1 (stereo partly drawn) [BIO1702, (Tetrahydro-furan-2-ylmethyl)-carbamic acid (1R,2S,5R)-2-isopropyl-5-methyl-cyclohexyl ester]
4.17	OC[C@H]1O[C@@H](Oc2ccc(O)cc2)[C@H](O)[C@@H](O)[C@@H]1O [beta-Arbutin, reference compound]

Tested on: Pigmented pig skin
Assay: Depigmenting effect on ex vivo skin (melanin granules, Fontana-Masson staining, image analysis)
Format: cell-based
Conditions: 1 wt.% in O/W emulsion applied topically, 6 days, vs. emulsion without test compound
Procedure: Pigmented pig skin was excised from animals (slaughtered for meat production; the pig skin model included the subcutis fat layer as described in EP 1 939 27), cut into 4×4×3 mm pieces (length×width×height) and placed in culture at the air-liquid interface on a sterilized cotton pad soaked with 5 ml of customized DMEM (Dulbecco's Modified Eagle Medium). Assays were started 24 h after sample acclimatization at 37° C., 5% CO2. O/W emulsions (as described in more detail below) without (=control) and with the test compounds, respectively, were applied topically and incubated for 6 days. Histological sections were prepared and melanin granules stained by Fontana-Masson technique. The granules were quantified by image analysis.
The O/W emulsions used had the following composition:
Phases A and B are heated to 70° C. separately. Pemulen TR1 as well as Ultrez-21 are dispersed in phase B when heated to 70° C. Phase B/C is added to phase A by mixing with an Ultra Turrax, followed by emulsifying. Phase D is slowly added to phase A/B/C using a paddle mixer and a pH 5.5-6 is adjusted. The formulation is cooled down while mixing with a paddle mixer. Phase E is prepared by dissolving one or more compounds of formula (I) in Hydrolite-5. Subsequently, phase E is added to the mixture of phase A-D.

Structure (SMILES)	Melanin score vs. Control [%]
CCNC(=O)O[C@@H]1C[C@H](C)CC[C@H]1C(C)C [BIO1151, Ethyl-carbamic acid (1R,2S,5R)-2-isopropyl-5-methyl-cyclohexyl ester]	−44
COCCCNC(=O)O[C@@H]1C[C@H](C)CC[C@H]1C(C)C [BIO1155, (3-Methoxy-propyl)-carbamic acid (1R,2S,5R)-2-isopropyl-5-methyl-cyclohexyl ester]	−46
